Source: US20220096516A1, “OLIGONUCLEOTIDE MOLECULE AND APPLICATION THEREOF IN TUMOR THERAPY” (Ractigen Therapeutics, priority 2019, published 2022)
d = 2'-deoxy (DNA); r = 2'-OH (RNA)

What follows are substances tested on LHPP gene (assay: High-throughput screening of saRNAs targeting LHPP promoter: LHPP mRNA by one-step RT-qPCR in Huh7 cells). Settings: 10 nM saRNA, 72 hours, relative to control (Mock).
Format: cell-based, human
Outline: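 LHPP transcript level relative to mock, normalised to the geometric mean of the HPRT1 and TBP reference genes, measured by one-step RT-qPCR on crude lysates. Huh7 cells had been RNAiMax-transfected with each saRNA at 10 nM for 72 h.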

**Q.** Which “Fold of changes in relative LHPP mRNA expression level” value does the source give for “RAG7-707: saRNA duplex; sense UUCUUCUCAGCCCAGGUCCTT (SEQ ID NO: 8), antisense GGACCUGGGCUGAGAAGAATT (SEQ ID NO: 172) (sugars from the 5' end r19 d2, backbone not given here)” here?
**A.** 1.72 fold

**Q.** And the “Fold of changes in relative LHPP mRNA expression level (log2)” value?
**A.** 0.78 log2

**Q.** Which “Fold of changes in relative LHPP mRNA expression level” value does the source give for “RAG7-106: saRNA duplex; sense GAAAGCUUCCGAAAAGGACTT (SEQ ID NO: 150), antisense GUCCUUUUCGGAAGCUUUCTT (SEQ ID NO: 314) (sugars from the 5' end r19 d2, backbone not given here)” here?
**A.** 1.12 fold

**Q.** What about the “Fold of changes in relative LHPP mRNA expression level (log2)” value of the same substance?
**A.** 0.17 log2

**Q.** With “RAG7-194: saRNA duplex; sense GGUGCCUUCUUGUCUCAAUTT (SEQ ID NO: 48), antisense AUUGAGACAAGAAGGCACCTT (SEQ ID NO: 212) (sugars from the 5' end r19 d2, backbone not given here)” as the substance, how does the “Fold of changes in relative LHPP mRNA expression level” value read?
**A.** 1.38 fold

**Q.** What about the “Fold of changes in relative LHPP mRNA expression level (log2)” value of the same substance?
**A.** 0.47 log2

**Q.** Which “Fold of changes in relative LHPP mRNA expression level” value does the source give for “RAG7-175: saRNA duplex; sense UUGCCUUUGACCUUUCUUATT (SEQ ID NO: 60), antisense UAAGAAAGGUCAAAGGCAATT (SEQ ID NO: 224) (sugars from the 5' end r19 d2, backbone not given here)” here?
**A.** 1.34 fold

**Q.** What about the “Fold of changes in relative LHPP mRNA expression level (log2)” value of the same substance?
**A.** 0.42 log2

**Q.** How did the “Fold of changes in relative LHPP mRNA expression level” value turn out when “RAG7-95: saRNA duplex; sense AAAAGGACACCGUUUCAGGTT (SEQ ID NO: 12), antisense CCUGAAACGGUGUCCUUUUTT (SEQ ID NO: 176) (sugars from the 5' end r19 d2, backbone not given here)” was run?
**A.** 1.67 fold

**Q.** What about the “Fold of changes in relative LHPP mRNA expression level (log2)” value of the same substance?
**A.** 0.74 log2

**Q.** How did the “Fold of changes in relative LHPP mRNA expression level” value turn out when “RAG7-883: saRNA duplex; sense AGAAGUAAAGUGUUCUCGUTT (SEQ ID NO: 161), antisense ACGAGAACACUUUACUUCUTT (SEQ ID NO: 325) (sugars from the 5' end r19 d2, backbone not given here)” was run?
**A.** 1.11 fold

**Q.** And the “Fold of changes in relative LHPP mRNA expression level (log2)” value?
**A.** 0.14 log2

**Q.** How did the “Fold of changes in relative LHPP mRNA expression level” value turn out when “RAG7-907: saRNA duplex; sense GAAAGCUCAAAGCUAUGUUTT (SEQ ID NO: 22), antisense AACAUAGCUUUGAGCUUUCTT (SEQ ID NO: 186) (sugars from the 5' end r19 d2, backbone not given here)” was run?
**A.** 1.55 fold

**Q.** And the “Fold of changes in relative LHPP mRNA expression level (log2)” value?
**A.** 0.63 log2

**Q.** How did the “Fold of changes in relative LHPP mRNA expression level” value turn out when “RAG7-706: saRNA duplex; sense UCUUCUCAGCCCAGGUCCUTT (SEQ ID NO: 15), antisense AGGACCUGGGCUGAGAAGATT (SEQ ID NO: 179) (sugars from the 5' end r19 d2, backbone not given here)” was run?
**A.** 1.63 fold

**Q.** What about the “Fold of changes in relative LHPP mRNA expression level (log2)” value of the same substance?
**A.** 0.70 log2

**Q.** Which “Fold of changes in relative LHPP mRNA expression level” value does the source give for “RAG7-185: saRNA duplex; sense UUGUCUCAAUUUGCCUUUGTT (SEQ ID NO: 116), antisense CAAAGGCAAAUUGAGACAATT (SEQ ID NO: 280) (sugars from the 5' end r19 d2, backbone not given here)” here?
**A.** 1.19 fold

**Q.** And the “Fold of changes in relative LHPP mRNA expression level (log2)” value?
**A.** 0.25 log2

**Q.** With “RAG7-150: saRNA duplex; sense UGUUUUCUGCUUUUCCUGCTT (SEQ ID NO: 32), antisense GCAGGAAAAGCAGAAAACATT (SEQ ID NO: 196) (sugars from the 5' end r19 d2, backbone not given here)” as the substance, how does the “Fold of changes in relative LHPP mRNA expression level” value read?
**A.** 1.48 fold

**Q.** And the “Fold of changes in relative LHPP mRNA expression level (log2)” value?
**A.** 0.56 log2

**Q.** Which results are given for “RAG7-844: saRNA duplex; sense GGUUCCGAGGGGCCAUUGATT (SEQ ID NO: 129), antisense UCAAUGGCCCCUCGGAACCTT (SEQ ID NO: 293) (sugars from the 5' end r19 d2, backbone not given here)”?
**A.** Fold of changes in relative LHPP mRNA expression level: 1.17 fold; Fold of changes in relative LHPP mRNA expression level (log2): 0.22 log2

**Q.** How did the “Fold of changes in relative LHPP mRNA expression level” value turn out when “RAG7-137: saRNA duplex; sense UCCUGCUCUUUGUCCGCUGTT (SEQ ID NO: 151), antisense CAGCGGACAAAGAGCAGGATT (SEQ ID NO: 315) (sugars from the 5' end r19 d2, backbone not given here)” was run?
**A.** 1.12 fold

**Q.** What about the “Fold of changes in relative LHPP mRNA expression level (log2)” value of the same substance?
**A.** 0.16 log2

**Q.** How did the “Fold of changes in relative LHPP mRNA expression level” value turn out when “RAG7-780: saRNA duplex; sense AAUGUAGCAUCGAGUGGUATT (SEQ ID NO: 142), antisense UACCACUCGAUGCUACAUUTT (SEQ ID NO: 306) (sugars from the 5' end r19 d2, backbone not given here)” was run?
**A.** 1.14 fold

**Q.** What about the “Fold of changes in relative LHPP mRNA expression level (log2)” value of the same substance?
**A.** 0.19 log2

**Q.** Which results are given for “RAG7-138: saRNA duplex; sense UUCCUGCUCUUUGUCCGCUTT (SEQ ID NO: 53), antisense AGCGGACAAAGAGCAGGAATT (SEQ ID NO: 217) (sugars from the 5' end r19 d2, backbone not given here)”?
**A.** Fold of changes in relative LHPP mRNA expression level: 1.36 fold; Fold of changes in relative LHPP mRNA expression level (log2): 0.45 log2

**Q.** “RAG7-145: saRNA duplex; sense UCUGCUUUUCCUGCUCUUUTT (SEQ ID NO: 9), antisense AAAGAGCAGGAAAAGCAGATT (SEQ ID NO: 173) (sugars from the 5' end r19 d2, backbone not given here)” was tested. Which “Fold of changes in relative LHPP mRNA expression level” value did it give?
**A.** 1.71 fold

**Q.** What about the “Fold of changes in relative LHPP mRNA expression level (log2)” value of the same substance?
**A.** 0.77 log2

**Q.** What does the source list for “RAG7-134: saRNA duplex; sense UGCUCUUUGUCCGCUGAUCTT (SEQ ID NO: 75), antisense GAUCAGCGGACAAAGAGCATT (SEQ ID NO: 239) (sugars from the 5' end r19 d2, backbone not given here)”?
**A.** Fold of changes in relative LHPP mRNA expression level: 1.28 fold; Fold of changes in relative LHPP mRNA expression level (log2): 0.36 log2

**Q.** “RAG7-187: saRNA duplex; sense UCUUGUCUCAAUUUGCCUUTT (SEQ ID NO: 123), antisense AAGGCAAAUUGAGACAAGATT (SEQ ID NO: 287) (sugars from the 5' end r19 d2, backbone not given here)” was tested. Which “Fold of changes in relative LHPP mRNA expression level” value did it give?
**A.** 1.17 fold

**Q.** And the “Fold of changes in relative LHPP mRNA expression level (log2)” value?
**A.** 0.22 log2

**Q.** How did the “Fold of changes in relative LHPP mRNA expression level” value turn out when “RAG7-893: saRNA duplex; sense AUGUUGGACCAGAAGUAAATT (SEQ ID NO: 14), antisense UUUACUUCUGGUCCAACAUTT (SEQ ID NO: 178) (sugars from the 5' end r19 d2, backbone not given here)” was run?
**A.** 1.63 fold

**Q.** And the “Fold of changes in relative LHPP mRNA expression level (log2)” value?
**A.** 0.70 log2

**Q.** With “RAG7-183: saRNA duplex; sense GUCUCAAUUUGCCUUUGACTT (SEQ ID NO: 27), antisense GUCAAAGGCAAAUUGAGACTT (SEQ ID NO: 191) (sugars from the 5' end r19 d2, backbone not given here)” as the substance, how does the “Fold of changes in relative LHPP mRNA expression level” value read?
**A.** 1.51 fold

**Q.** And the “Fold of changes in relative LHPP mRNA expression level (log2)” value?
**A.** 0.59 log2

**Q.** For “RAG7-120: saRNA duplex; sense UGAUCUCCUGGGAAGAAAGTT (SEQ ID NO: 141), antisense CUUUCUUCCCAGGAGAUCATT (SEQ ID NO: 305) (sugars from the 5' end r19 d2, backbone not given here)”, which “Fold of changes in relative LHPP mRNA expression level” value is on record?
**A.** 1.14 fold

**Q.** What about the “Fold of changes in relative LHPP mRNA expression level (log2)” value of the same substance?
**A.** 0.19 log2
